Where a name gives a salt, the structure may show the parent alone.
target: T1, collagenase obtained from a culture of human synovial fibroblasts (Homo sapiens, UniProt P03956); assay: in vitro collagenase inhibiting activity (14C-acetylated collagen type I from rat tail tendons as substrate, microtitre plate assay); type: biochemical; conditions: human synovial fibroblast collagenase, trypsin-activated; 14C-acetylated rat tail tendon collagen type I
T1 construct: endogenous in cells; host or cells: human synovial fibroblasts in culture (conditioned medium)
T1 sequence (P03956 100-469): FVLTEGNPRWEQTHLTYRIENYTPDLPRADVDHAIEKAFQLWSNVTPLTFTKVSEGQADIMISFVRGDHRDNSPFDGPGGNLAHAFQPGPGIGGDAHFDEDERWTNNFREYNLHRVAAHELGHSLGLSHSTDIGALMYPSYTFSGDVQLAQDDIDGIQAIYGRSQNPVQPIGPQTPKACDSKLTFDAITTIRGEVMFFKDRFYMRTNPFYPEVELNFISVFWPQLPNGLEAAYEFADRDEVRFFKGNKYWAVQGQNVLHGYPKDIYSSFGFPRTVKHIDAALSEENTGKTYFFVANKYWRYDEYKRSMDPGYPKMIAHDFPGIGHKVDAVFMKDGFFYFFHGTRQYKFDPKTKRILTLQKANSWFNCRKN

IC50	SMILES
0.9 nM	CNC(=O)[C@@H](NC(=O)[C@H](CC(C)C)C(CCCC(=O)OC)C(=O)NO)C(C)(C)C (single isomer, unassigned) [Compound F, N^2-[2(R)-[1(R or S)-(hydroxycarbamoyl)-4-(methoxycarbonyl)butyl]-4-methylvaleryl]-N^1,3-dimethyl-L-valinamide]
1.9 nM	CNC(=O)[C@@H](NC(=O)[C@H](CC(C)C)C(CCCc1ccccc1)C(=O)NO)C(C)(C)C (single isomer, unassigned) [Compound G, N^2-[2(R)-[1(R or S)-(hydroxycarbamoyl)-4-phenylbutyl]-4-methylvaleryl]-N^1,3-dimethyl-L-valinamide]
0.5 nM	CNC(=O)[C@@H](NC(=O)[C@H](CC(C)C)C(CN1C(=O)CCC1=O)C(=O)NO)C(C)(C)C (single isomer, unassigned) [Compound H, N^2-[2(R)-[1(R or S)-(hydroxycarbamoyl)-2-succinimidoethyl]-4-methylvaleryl]-N^1,3-dimethyl-L-valinamide]

Further lines, the molecule ahead of its results:

SMILES	IC50
CNC(=O)[C@@H](NC(=O)C(CC(C)C)CP(=O)(O)CN1C(=O)c2cccc3c(O)c(Br)cc(c23)C1=O)C(C)(C)C (single isomer, unassigned) [Compound B, N^2-[2(R or S)-[[[(5-bromo-2,3-dihydro-6-hydroxy-1,3-dioxo-1H-benz[d,e]isoquinol-2-yl)methyl](hydroxy)phosphinyl]methyl]-4-methylvaleryl]-N^1,3-dimethyl-L-valinamide]	4 nM
CNC(=O)C(NC(=O)C(CC(C)C)C(N)P(=O)(O)CN1C(=O)c2cccc3c(O)c(Br)cc(c23)C1=O)C(C)(C)C (single isomer, unassigned) [Compound C, N^2-[2-(R or S)-[[(R)-(amino)-[(5-bromo-2,3-dihydro-6-hydroxy-1,3-dioxo-1H-benz[d,e]isoquinol-2-yl)methyl](hydroxy)phosphinyl]methyl]-4-methylvaleryl]-N^1,3-dimethyl-L-valinamide hydrobromide]	9 nM
CNC(=O)[C@@H](NC(=O)C(CC(C)C)[C@H](C)C(=O)NO)C(C)(C)C (single isomer, unassigned; isomer 2) [Compound D, N^2-[2(R or S)-[1(S)-(hydroxycarbamoyl)ethyl]-4-methylvaleryl]-N^1,3-dimethyl-L-valinamide (isomer 2)]	2 nM
CNC(=O)[C@@H](NC(=O)[C@@H](CC(=O)NO)CC(C)C)C(C)(C)C [Compound A, N^2-[2(R)-[Hydroxycarbamoylmethyl]-4-methylvaleryl]-N^1,3-dimethyl-L-valinamide]	4 nM

— US5304549A, “Amino acid derivatives” (Hoffmann-La Roche Inc., priority 1991, dated 1994)
